Measured values: ChEMBL document CHEMBL4340504, “Caged-xanthone from Cratoxylum formosum ssp. pruniflorum inhibits malignant cancer phenotypes in multidrug-resistant human A549 lung cancer cells through down-regulation of NF-κB” (Bioorg Med Chem, 2019)
≈ marks a conversion by molar mass, not a printed value. Calls of active or inactive are those of the source. The rule behind the calls is not given here.

What was measured:
[1] = Antiinvasive activity in human A549RT-eto cells assessed as reduction in cell invasion at 1.5 ug/ml measured after 24 hrs using hematoxylin-eosin by microscopy-based transwell assay relative to control; format: functional
Homo sapiens [2] = organism: Homo sapiens; assay: Down regulation of NFkappaB expression in human A549RT-eto cells at 1 to 5 ug/ml measured after 24 hrs by immunoblotting analysis; format: functional, cell-based
Homo sapiens [3] = organism: Homo sapiens; assay: Inhibition of NFkappaB in human A549RT-eto cells assessed as reduction in epithelial-mesenchymal transition by measuring up regulation of E-Cadherin expression at 1 to 1.5 ug/ml after 24 hrs by immunoblotting analysis; format: cell-based
Homo sapiens [4] = organism: Homo sapiens; assay: Inhibition of NFkappaB in human A549RT-eto cells assessed as down regulation of Bmi1 expression by immunoblotting analysis; format: cell-based
Homo sapiens [5] = organism: Homo sapiens; assay: (§1) Cytotoxicity against human A549RT-eto cells assessed as reduction in cell viability after 72 hrs by MTT assay; format: functional, cell-based
[6] = as §1; format: functional, cell-based
Homo sapiens [7] = organism: Homo sapiens; assay: Induction of apoptosis in human A549RT-eto cells transfected with NF-kappaB siRNA assessed as increase in pro-caspase 9 expression at 1.5 ug/ml by immunoblotting analysis; format: functional, cell-based
Homo sapiens [8] = organism: Homo sapiens; assay: Down regulation of P-gp expression in human A549RT-eto cells transfected with NF-kappaB siRNA at 1.5 ug/ml by immunoblotting analysis; format: functional, cell-based
Homo sapiens [9] = organism: Homo sapiens; assay: Induction of apoptosis in human A549RT-eto cells transfected with NF-kappaB siRNA assessed as increase in pro-caspase 8 expression at 1.5 ug/ml by immunoblotting analysis; format: functional, cell-based
Homo sapiens [10] = organism: Homo sapiens; assay: Inhibition of NFkappaB in human A549RT-eto cells assessed as down regulation of Oct4 expression by immunoblotting analysis; format: cell-based
Homo sapiens [11] = organism: Homo sapiens; assay: Inhibition of NFkappaB in human A549RT-eto cells assessed as suppression of sphere formation by measuring decrease in number of spheroid formation at 1.5 ug/mL treated for 24 hrs followed by cell culture for 6 days and measured over 48 hrs by optical microscopic method; format: cell-based
Homo sapiens [12] = organism: Homo sapiens; assay: Induction of apoptosis in human A549RT-eto cells transfected with NF-kappaB siRNA assessed as increase in cleaved PARP expression at 1.5 ug/ml by immunoblotting analysis; format: functional, cell-based
Homo sapiens [13] = organism: Homo sapiens; assay: Down regulation of NFkappaB expression in human A549RT-eto cells transfected with NF-kappaB siRNA at 1.5 ug/ml by immunoblotting analysis; format: functional, cell-based
A549 = assay: Cytotoxicity against human A549 cells assessed as reduction in cell viability after 72 hrs by MTT assay; format: functional, cell-based; conditions: A549, 72 h
Homo sapiens [14] = organism: Homo sapiens; assay: Inhibition of NFkappaB in human A549RT-eto cells assessed as downregulation of Nanog expression by immunoblotting analysis; format: cell-based
Homo sapiens [15] = organism: Homo sapiens; assay: Induction of apoptosis in human A549RT-eto cells assessed as reduction in […] 8 level at 1 to 5 ug/ml measured after 24 hrs by immunoblotting analysis; format: functional, cell-based
Homo sapiens [16] = organism: Homo sapiens; assay: Inhibition of NFkappaB in human A549RT-eto cells assessed as suppression of sphere formation by measuring decrease in spheroid size at 1.5 ug/mL treated for 24 hrs followed by cell culture for 6 days and measured over 48 hrs by optical microscopic method; format: cell-based
Homo sapiens [17] = organism: Homo sapiens; assay: Inhibition of NFkappaB in human A549RT-eto cells assessed as reduction in epithelial-mesenchymal transition by measuring down regulation of vimentin expression at 1 to 1.5 ug/ml after 24 hrs by immunoblotting analysis; format: cell-based
Homo sapiens [18] = organism: Homo sapiens; assay: Cytotoxicity against human A549RT-eto cells assessed as cell death after 24 hrs by MTT assay; format: functional, cell-based
Homo sapiens [19] = organism: Homo sapiens; assay: Inhibition of NFkappaB in human A549RT-eto cells assessed as down regulation of S0x2 expression by immunoblotting analysis; format: cell-based
Homo sapiens [20] = organism: Homo sapiens; assay: Induction of apoptosis in human A549RT-eto cells assessed as reduction in […] 9 level at 1 to 5 ug/ml measured after 24 hrs by immunoblotting analysis; format: functional, cell-based
Homo sapiens [21] = organism: Homo sapiens; assay: Inhibition of NFkappaB in human A549RT-eto cells assessed as down regulation of P-gp expression at 1 to 5 ug/ml measured after 24 hrs by immunoblotting analysis; format: cell-based
Homo sapiens [22] = organism: Homo sapiens; assay: Induction of apoptosis in human A549RT-eto cells assessed as increase in PARP level at 1 to 5 ug/ml measured after 24 hrs by immunoblotting analysis; format: functional, cell-based
Homo sapiens [23] = organism: Homo sapiens; assay: Antimigratory activity in human A549RT-eto cells assessed as decrease in cell migration at 1.5 ug/ml for 24 hrs by phase contrast microscopy-based scratch would healing assay; format: functional
Homo sapiens [24] = organism: Homo sapiens; assay: Inhibition of NFkappaB in human A549RT-eto cells assessed as reduction in epithelial-mesenchymal transition by measuring down regulation of N-Cadherin expression at 1 to 1.5 ug/ml after 24 hrs by immunoblotting analysis; format: cell-based

SMILES: CO[C@@]12C=C3C(=O)c4c(O)cccc4O[C@@]34[C@@H](C1)C(C)(C)O[C@@]4(CC=C(C)C)C2=O
- fold change (FC) [1]: 2
- Activity (Homo sapiens [2]): Active
- inhibition (Homo sapiens [3]): Active
- inhibition (Homo sapiens [4]): Dose-dependent effect
- Activity (Homo sapiens [5]): Dose-dependent effect
- IC50 [6]: 4.96 µg/mL (≈ 12.1 µM)
- Activity (Homo sapiens [7]): Active
- Activity (Homo sapiens [8]): Active
- Activity (Homo sapiens [9]): Active
- inhibition (Homo sapiens [10]): Dose-dependent effect
- inhibition (Homo sapiens [11]): Active
- Activity (Homo sapiens [12]): Active
- Activity (Homo sapiens [13]): Active
- IC50 (A549): 2.51 µg/mL (≈ 6.12 µM)
- inhibition (Homo sapiens [14]): Dose-dependent effect
- Activity (Homo sapiens [15]): Active
- inhibition (Homo sapiens [16]): Active
- inhibition (Homo sapiens [17]): Active
- Activity (Homo sapiens [18]): Active
- inhibition (Homo sapiens [19]): Dose-dependent effect
- Activity (Homo sapiens [20]): Active
- inhibition (Homo sapiens [21]): Active
- Activity (Homo sapiens [22]): Active
- Activity (Homo sapiens [23]): Active
- inhibition (Homo sapiens [24]): Active
